Patent US20240208968A1, “ALPHA V BETA 6 AND ALPHA V BETA 1 INTEGRIN INHIBITORS AND USES THEREOF” (DiCE Molecules SV, Inc., priority 2021, published 2024)
Counter-ions that a name gives are not always drawn.

What was measured:
αvβ1 = αvβ1 (Homo sapiens, UniProt P05556+P06756); assay: Solid Phase Integrin αvβ1 Assay; assay type: binding
Protocol: (§1) The compounds exemplified in this document were tested for their ability to inhibit αvβ1 and αvβ6 in below described solid phase integrin assays.
Solid Phase Integrin αvβ1 Assay
96-well microtiter plates (4 HBX Immulon; Thermo Fisher Scientific, Waltham, MA) were coated with 100 μL/well of 1 μg/mL recombinant TGFb1-LAP in TBS at 4° C., overnight. The coating solution was removed, and plates were blocked with 200 μL/well of blocking and binding buffer (2% BSA/TBST, 1 mM MnCl2) at room temperature for 1 hr. Blocking buffer was removed and 50 μL of binding buffer and testing compounds were added. 50 μL of diluted αvβ1 (0.2 ug/mL in binding buffer) was added to wells (100 μL/well total) for and plates incubated for 90 min at room temperature. Wells were washed thrice with washing buffer (TBS, 0.05% Tween, 1 mM MnCl2) and plates were incubated with 100 μL/well of a 1:12500 dilution of streptavidin-horseradish peroxidase conjugate (Thermo Fisher Scientific) in binding buffer for 20 min at room temperature. Bound protein was detected using the substrate TMB. The IC50 values for testing compounds were calculated by Levenberg-Marquardt four parameter fitting logistics.

αvβ6 = αvβ6 (Homo sapiens, UniProt P06756+P18564); assay: Solid Phase Integrin αvβ6 Assay; assay type: binding
Chain of αvβ6 (P06756 31-992 limits assumed): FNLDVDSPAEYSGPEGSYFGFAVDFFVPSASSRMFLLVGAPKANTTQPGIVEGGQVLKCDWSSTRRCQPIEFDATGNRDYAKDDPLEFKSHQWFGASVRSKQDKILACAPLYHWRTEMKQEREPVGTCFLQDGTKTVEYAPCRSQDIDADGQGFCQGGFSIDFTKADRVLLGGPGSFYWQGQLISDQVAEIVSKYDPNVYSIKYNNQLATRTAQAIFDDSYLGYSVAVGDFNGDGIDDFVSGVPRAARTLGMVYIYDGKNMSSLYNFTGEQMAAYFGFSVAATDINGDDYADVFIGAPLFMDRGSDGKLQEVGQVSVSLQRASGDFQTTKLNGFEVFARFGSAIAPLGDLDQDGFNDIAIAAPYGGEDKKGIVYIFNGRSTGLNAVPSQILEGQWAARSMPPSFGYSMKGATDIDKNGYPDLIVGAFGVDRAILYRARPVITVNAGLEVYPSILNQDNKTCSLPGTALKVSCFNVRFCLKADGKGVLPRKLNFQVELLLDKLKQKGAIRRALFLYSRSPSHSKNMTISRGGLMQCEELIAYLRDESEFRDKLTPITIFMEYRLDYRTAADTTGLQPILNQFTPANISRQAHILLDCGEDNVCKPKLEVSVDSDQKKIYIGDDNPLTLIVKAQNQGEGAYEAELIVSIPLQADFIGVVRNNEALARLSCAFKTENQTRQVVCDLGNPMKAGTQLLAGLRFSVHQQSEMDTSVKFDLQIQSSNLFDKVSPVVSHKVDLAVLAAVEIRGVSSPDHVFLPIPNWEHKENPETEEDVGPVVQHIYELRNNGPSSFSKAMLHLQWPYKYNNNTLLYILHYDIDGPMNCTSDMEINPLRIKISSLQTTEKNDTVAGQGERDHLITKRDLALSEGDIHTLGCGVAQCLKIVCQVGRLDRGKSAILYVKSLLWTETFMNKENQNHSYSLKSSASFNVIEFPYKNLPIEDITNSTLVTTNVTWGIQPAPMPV
Chain of αvβ6 (P18564 22-707 limits assumed): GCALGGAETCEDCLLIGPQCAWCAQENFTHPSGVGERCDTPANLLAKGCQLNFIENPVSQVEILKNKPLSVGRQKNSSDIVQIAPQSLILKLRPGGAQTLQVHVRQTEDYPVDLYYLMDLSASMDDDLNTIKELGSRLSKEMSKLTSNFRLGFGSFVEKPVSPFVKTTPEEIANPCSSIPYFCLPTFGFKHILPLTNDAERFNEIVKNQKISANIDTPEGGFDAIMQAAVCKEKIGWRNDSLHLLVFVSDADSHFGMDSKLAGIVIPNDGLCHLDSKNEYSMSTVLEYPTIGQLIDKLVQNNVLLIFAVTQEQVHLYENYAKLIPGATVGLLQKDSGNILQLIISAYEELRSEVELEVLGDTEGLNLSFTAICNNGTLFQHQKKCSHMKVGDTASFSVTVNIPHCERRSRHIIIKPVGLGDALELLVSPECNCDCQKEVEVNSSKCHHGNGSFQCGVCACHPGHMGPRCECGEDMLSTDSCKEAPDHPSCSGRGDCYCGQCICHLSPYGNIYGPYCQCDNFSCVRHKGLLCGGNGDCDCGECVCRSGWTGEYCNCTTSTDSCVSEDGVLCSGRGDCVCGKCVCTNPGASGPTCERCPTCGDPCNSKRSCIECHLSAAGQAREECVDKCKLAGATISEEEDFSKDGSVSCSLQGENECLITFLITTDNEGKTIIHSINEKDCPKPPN
Protocol: as §1
Solid Phase Integrin αvβ6 Assay
96-well microtiter plates (4 HBX Immulon; Thermo Fisher Scientific, Waltham, MA) were coated with 100 μL/well of 1 μg/mL recombinant TGFb1-LAP in TBS at 4° C., overnight. The coating solution was removed, and plates were blocked with 200 μL/well of blocking and binding buffer (2% BSA/TBST, 1 mM MnCl2) at room temperature for 1 hr. Blocking buffer was removed and 50 uL of binding buffer and testing compounds were added. 50 μL of diluted αvβ6 (0.2 μg/mL in binding buffer) was added to wells (100 uL/well total) and plates incubated for 1 hr at room temperature. Wells were washed thrice with washing buffer (TBS, 0.05% Tween, 1 mM MnCl2) and plates were incubated with 100 μL/well of a 1:12500) dilution of streptavidin-horseradish peroxidase conjugate (Thermo Fisher Scientific) in binding buffer for 20 min at room temperature. Bound protein was detected using the substrate TMB. The IC50 values for testing compounds were calculated by Levenberg-Marquardt four parameter fitting logistics.

Chain of αvβ1 (P06756 31-992 limits assumed): as the sequence (P06756 31-992 limits assumed) above
Chain of αvβ1 (P05556 21-728 limits assumed): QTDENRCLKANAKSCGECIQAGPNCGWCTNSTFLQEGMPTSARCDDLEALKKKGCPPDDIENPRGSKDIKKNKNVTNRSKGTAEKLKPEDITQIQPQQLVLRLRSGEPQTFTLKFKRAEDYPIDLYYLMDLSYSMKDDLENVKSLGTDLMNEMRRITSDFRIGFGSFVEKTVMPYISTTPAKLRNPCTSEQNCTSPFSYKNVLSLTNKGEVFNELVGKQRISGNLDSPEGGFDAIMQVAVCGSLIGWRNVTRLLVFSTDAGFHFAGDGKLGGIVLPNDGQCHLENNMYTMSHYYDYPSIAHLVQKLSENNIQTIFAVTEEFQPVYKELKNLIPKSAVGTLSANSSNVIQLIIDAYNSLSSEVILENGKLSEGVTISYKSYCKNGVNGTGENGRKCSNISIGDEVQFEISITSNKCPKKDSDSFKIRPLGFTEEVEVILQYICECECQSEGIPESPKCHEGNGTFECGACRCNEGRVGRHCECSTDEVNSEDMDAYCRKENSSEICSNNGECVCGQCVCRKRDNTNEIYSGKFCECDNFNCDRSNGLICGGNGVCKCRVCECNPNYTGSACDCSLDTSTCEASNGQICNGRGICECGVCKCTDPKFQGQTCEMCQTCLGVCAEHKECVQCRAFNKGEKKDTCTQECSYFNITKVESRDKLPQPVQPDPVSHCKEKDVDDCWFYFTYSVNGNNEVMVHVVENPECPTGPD

Row | SMILES | IC50 (αvβ1) [nM] | IC50 (αvβ6) [nM]
1 | O=C(O)C[C@H](NC(=O)[C@@H]1CCCN(CCCc2ccc3c(n2)NCCC3)C1)c1cccc(N2CCCC2)c1 [Compound 227, (S)-3-(3-(pyrrolidin-1-yl)phenyl)-3-((R)-1-(3-(5,6,7,8-tetrahydro-1,8-naphthyridin-2-yl)propyl)piperidine-3-carboxamido)propanoic acid] | < 100 | < 100
2 | CN1CCN(c2cccc([C@H](CC(=O)O)NC(=O)[C@@H]3CCCN(CCCc4ccc5c(n4)NCCC5)C3)c2)CC1 [Compound 228, (S)-3-(3-(4-methylpiperazin-1-yl)phenyl)-3-((R)-1-(3-(5,6,7,8-tetrahydro-1,8-naphthyridin-2-yl)propyl)piperidine-3-carboxamido)propanoic acid] | < 100 | < 100
3 | O=C(O)CC(NC(=O)[C@@H]1CCCN(CCCc2ccc3c(n2)NCCC3)C1)c1cnn(-c2ccccc2)c1 (stereo partly drawn) [Compound 233, 3-(1-phenyl-1H-pyrazol-4-yl)-3-((R)-1-(3-(5,6,7,8-tetrahydro-1,8-naphthyridin-2-yl)propyl)piperidine-3-carboxamido)propanoic acid hydrochloride] | < 100 | < 100
4 | CC1(C)CN(c2cccc([C@H](CC(=O)O)NC(=O)[C@@H]3CCCN(CCCc4ccc5c(n4)NCCC5)C3)c2)CCO1 [Compound 234, (S)-3-(3-(2,2-dimethylmorpholino)phenyl)-3-((R)-1-(3-(5,6,7,8-tetrahydro-1,8-naphthyridin-2-yl)propyl)piperidine-3-carboxamido)propanoic acid] | < 100 | < 100
5 | CC1(C)COCCN1c1cccc([C@H](CC(=O)O)NC(=O)[C@@H]2CCCN(CCCc3ccc4c(n3)NCCC4)C2)c1 [Compound 235, (S)-3-(3-(3,3-dimethylmorpholino)phenyl)-3-((R)-1-(3-(5,6,7,8-tetrahydro-1,8-naphthyridin-2-yl)propyl)piperidine-3-carboxamido)propanoic acid] | < 100 | < 100
6 | Cc1ccn(-c2cccc([C@H](CC(=O)O)NC(=O)[C@@H]3CCCN(CCCc4ccc5c(n4)NCCC5)C3)c2)n1 [Compound 238, (S)-3-(3-(3-methyl-1H-pyrazol-1-yl)phenyl)-3-((R)-1-(3-(5,6,7,8-tetrahydro-1,8-naphthyridin-2-yl)propyl)piperidine-3-carboxamido)propanoic acid] | < 100 | < 100
7 | O=C(O)C[C@H](NC(=O)[C@@H]1CCCN(CCCc2ccc3c(n2)NCCC3)C1)c1cccc(N2CCCC2=O)c1 [Compound 239, (S)-3-(3-(2-oxopyrrolidin-1-yl)phenyl)-3-((R)-1-(3-(5,6,7,8-tetrahydro-1,8-naphthyridin-2-yl)propyl)piperidine-3-carboxamido)propanoic acid] | < 100 | < 100
8 | O=C(O)C[C@H](NC(=O)[C@@H]1CCCN(CCCc2ccc3c(n2)NCCC3)C1)c1cccc(-c2ccccc2)c1 [Compound 240, (S)-3-([1,1′-biphenyl]-3-yl)-3-((R)-1-(3-(5,6,7,8-tetrahydro-1,8-naphthyridin-2-yl)propyl)piperidine-3-carboxamido)propanoic acid hydrochloride] | < 100 | < 100
9 | CC1(C)CN(c2cccc([C@H](CC(=O)O)NC(=O)[C@@H]3CCCN(CCCc4ccc5c(n4)NCCC5)C3)c2)CC(C)(C)O1 [Compound 242, (S)-3-((R)-1-(3-(5,6,7,8-tetrahydro-1,8-naphthyridin-2-yl)propyl)piperidine-3-carboxamido)-3-(3-(2,2,6,6-tetramethylmorpholino)phenyl)propanoic acid] | < 100 | < 100
10 | O=C(O)C[C@H](NC(=O)[C@@H]1CCCN(CCCc2ccc3c(n2)NCCC3)C1)c1ccc(F)c(C2CC2)c1 [Compound 244-A, 3-(3-cyclopropyl-4-fluorophenyl)-3-((R)-1-(3-(5,6,7,8-tetrahydro-1,8-naphthyridin-2-yl)propyl)piperidine-3-carboxamido)propanoic acid] | < 100 | < 100
11 | O=C(O)C[C@H](NC(=O)[C@@H]1CCCN(CCCc2ccc3c(n2)NCCC3)C1)c1cc(C2CC2)ccc1F [Compound 245-A, 3-(5-cyclopropyl-2-fluorophenyl)-3-((R)-1-(3-(5,6,7,8-tetrahydro-1,8-naphthyridin-2-yl)propyl)piperidine-3-carboxamido)propanoic acid] | 100 to 1000 | < 100
12 | O=C(O)C[C@@H](NC(=O)[C@@H]1CCCN(CCCc2ccc3c(n2)NCCC3)C1)c1cc(C2CC2)ccc1F [Compound 245-B, 3-(5-cyclopropyl-2-fluorophenyl)-3-((R)-1-(3-(5,6,7,8-tetrahydro-1,8-naphthyridin-2-yl)propyl)piperidine-3-carboxamido)propanoic acid] | < 100 | < 100

The remaining lines, values ahead:

Row | IC50 (αvβ1) [nM] | IC50 (αvβ6) [nM] | SMILES
13 | < 100 | < 100 | O=C(O)C[C@H](NC(=O)[C@@H]1CCCN(CCCc2ccc3c(n2)NCCC3)C1)c1cccc(N2CCOCC2)c1 [Compound 229, (S)-3-(3-morpholinophenyl)-3-((R)-1-(3-(5,6,7,8-tetrahydro-1,8-naphthyridin-2-yl)propyl)piperidine-3-carboxamido)propanoic acid hydrochloride]
14 | < 100 | < 100 | CC1(C)CCCN(c2cccc([C@H](CC(=O)O)NC(=O)[C@@H]3CCCN(CCCc4ccc5c(n4)NCCC5)C3)c2)C1 [Compound 230, (S)-3-(3-(3,3-dimethylpiperidin-1-yl)phenyl)-3-((R)-1-(3-(5,6,7,8-tetrahydro-1,8-naphthyridin-2-yl)propyl)piperidine-3-carboxamido)propanoic acid]
15 | < 100 | < 100 | O=C(O)C[C@H](NC(=O)[C@@H]1CCCN(CCCc2ccc3c(n2)NCCC3)C1)c1cccc(C2CCCC2)c1 [Compound 231, (S)-3-(3-cyclopentylphenyl)-3-((R)-1-(3-(5,6,7,8-tetrahydro-1,8-naphthyridin-2-yl)propyl)piperidine-3-carboxamido)propanoic acid hydrochloride]
16 | < 100 | < 100 | O=C(O)C[C@H](NC(=O)[C@@H]1CCCN(CCCc2ccc3c(n2)NCCC3)C1)c1cccc(N2CCCCC2)c1 [Compound 232, (S)-3-(3-(piperidin-1-yl)phenyl)-3-((R)-1-(3-(5,6,7,8-tetrahydro-1,8-naphthyridin-2-yl)propyl)piperidine-3-carboxamido)propanoic acid hydrochloride]
17 | < 100 | < 100 | C[C@@H]1CN(c2cccc([C@H](CC(=O)O)NC(=O)[C@@H]3CCCN(CCCc4ccc5c(n4)NCCC5)C3)c2)C[C@H](C)O1 [Compound 236, (S)-3-(3-((2S,6R)-2,6-dimethylmorpholino)phenyl)-3-((R)-1-(3-(5,6,7,8-tetrahydro-1,8-naphthyridin-2-yl)propyl)piperidine-3-carboxamido)propanoic acid]
18 | < 100 | < 100 | CC1(C)CCN(c2cccc([C@H](CC(=O)O)NC(=O)[C@@H]3CCCN(CCCc4ccc5c(n4)NCCC5)C3)c2)CC1 [Compound 237, (S)-3-(3-(4,4-dimethylpiperidin-1-yl)phenyl)-3-((R)-1-(3-(5,6,7,8-tetrahydro-1,8-naphthyridin-2-yl)propyl)piperidine-3-carboxamido)propanoic acid]
19 | < 100 | < 100 | O=C(O)C[C@@H](NC(=O)[C@@H]1CCCN(CCCc2ccc3c(n2)NCCC3)C1)c1ccc(F)c(C2CC2)c1 [Compound 244-B, 3-(3-cyclopropyl-4-fluorophenyl)-3-((R)-1-(3-(5,6,7,8-tetrahydro-1,8-naphthyridin-2-yl)propyl)piperidine-3-carboxamido)propanoic acid]
20 | < 100 | < 100 | O=C(NC[C@@H](C(=O)O)c1ccccc1)[C@@H]1CCCN(CCCc2ccc3c(n2)NCCC3)C1 [Compound 246, (S)-2-phenyl-3-((R)-1-(3-(5,6,7,8-tetrahydro-1,8-naphthyridin-2-yl)propyl)piperidine-3-carboxamido)propanoic acid]
21 | < 100 | < 100 | O=C(NC[C@H](C(=O)O)c1ccccc1)[C@@H]1CCCN(CCCc2ccc3c(n2)NCCC3)C1 [Compound 247, (R)-2-phenyl-3-((R)-1-(3-(5,6,7,8-tetrahydro-1,8-naphthyridin-2-yl)propyl)piperidine-3-carboxamido)propanoic acid]
22 | 100 to 1000 | 100 to 1000 | O=C(NC[C@H](C(=O)O)c1ccc2c(c1)CCCC2)[C@@H]1CCCN(CCCc2ccc3c(n2)NCCC3)C1 [Compound 248-A, 3-((R)-1-(3-(5,6,7,8-tetrahydro-1,8-naphthyridin-2-yl)propyl)piperidine-3-carboxamido)-2-(5,6,7,8-tetrahydronaphthalen-2-yl)propanoic acid]
